Measurements published in patent US8686152B2, “4,4-disubstituted piperidine derivatives useful as inhibitors of dipeptidyl peptidase-1 (DPP-1)” (Janssen Pharmaceutica NV, priority 2010, dated 2014).

Target: T1, recombinant human DPP-1 (Cathepsin C) (Homo sapiens, UniProt P53634)
T1 construct: made in house
Assay: DPP-1 Inhibition Assay (In Vitro), fluorogenic substrate GR-AMC
Format: biochemical
Details: 0.15 nM DPP-1, 10 uM GR-AMC, pH 7.0, room temperature; average value where tested multiple times
Experimental: Test compounds were assessed for DPP-1 (Cathepsin C) inhibitory activity using a fluorogenic substrate, GR-AMC (Glycine-Arginine-amino-4-methylcoumarin, Bachem, I-1215). The amount of amino-methylcoumarin released is proportional to the DPP-1 activity, and the reaction is monitored kinetically with a Molecular Devices plate reader using black 96-well plates.
All compounds were tested under room temperature conditions. The assay buffer consisted of 50 mM HEPES, pH 7.0, 100 mM NaCl, 2 mM glutathione (GSH), and 0.002% TWEEN 20. GSH and TWEEN 20 were added to the buffer fresh daily. Just prior to use, an in-house preparation of recombinant human DPP-1 (240 μM stock, MW 49.6 kD) was diluted 600-fold in assay buffer containing fresh 2 mM dithiothreitol (DTT) to activate the enzyme, then diluted into assay buffer (without DTT) 133-fold for a DPP-1 working solution of 3 nM. Test compounds were diluted in DMSO for 20× their final assay concentrations.
Additions to a 96-well black Costar 3915 plates were as follows: 90 μL of 11 μM GR-AMC, 5 μL test compound (followed by mixing), and 5 μL 3 nM DPP-1 to start the reaction. Fluorescent reactions were monitored kinetically at 360 nm excitation, 440 nm emission on a Molecular Devices Spectramax XPS reader. The Softmax Pro software of the reader determined the initial velocity of the selected data (the first 3-5 minutes of the reaction), and the best linear regression fit of the initial kinetic data. Final assay conditions were 0.15 nM DPP-1, 10 uM GR-AMC, 50 mM HEPES, pH 7.0, 100 mM NaCl, 2 mM GSH, 0.002% TWEEN 20, 1 uM DTT, 5.0% DMSO. Initial velocity rates were plotted vs. test compound concentration by use of a four-parameter logistics equation (nonlinear regression, sigmoidal dose-response (variable slope), with fixed Hill (1.0) using GraphPad Prism® software for determination of DPP-1 IC50. Within-run assay coefficient of variation (CV) was generally <10%; between-run CV <20%.
Representative compounds of the present invention were tested according to the procedure as described above, with results as listed in Table 5, below.

T1 sequence (P53634 25-463): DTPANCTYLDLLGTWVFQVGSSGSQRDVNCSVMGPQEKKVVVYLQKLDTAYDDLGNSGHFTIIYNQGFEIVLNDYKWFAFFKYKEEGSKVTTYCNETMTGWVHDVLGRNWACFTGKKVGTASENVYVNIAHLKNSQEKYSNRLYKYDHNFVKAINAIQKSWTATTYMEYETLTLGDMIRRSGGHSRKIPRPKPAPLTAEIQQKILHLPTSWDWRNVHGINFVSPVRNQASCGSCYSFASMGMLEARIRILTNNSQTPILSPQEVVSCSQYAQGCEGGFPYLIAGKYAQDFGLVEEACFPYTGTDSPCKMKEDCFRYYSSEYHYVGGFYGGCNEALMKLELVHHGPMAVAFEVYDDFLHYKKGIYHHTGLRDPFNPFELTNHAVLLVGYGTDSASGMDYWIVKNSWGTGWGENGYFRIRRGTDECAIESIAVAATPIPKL

SMILES	IC50 [nM]
CC[C@H](N)C(=O)N1CCC(Cc2ccccc2)(C(=O)OCC2CCCCC2)CC1 [Compound 10]	~5000
CC[C@H](N)C(=O)N1CCC(Cc2cccnc2)(C(=O)NC2CCCCC2)CC1 [Compound 67]	9100
N[C@@H](Cc1cccs1)C(=O)N1CCC(Cc2ccc(-c3cccnc3Cl)cc2)(C(=O)NC2CCCCC2)CC1 [Compound 48]	39
N[C@@H](Cc1cccs1)C(=O)N1CCC(Cc2ccc(-c3cncnc3)cc2)(C(=O)NC2CCCCC2)CC1 [Compound 43]	29
N#CC[C@H](N)C(=O)N1CCC(Cc2ccc(-c3ccccc3)cc2)(C(=O)NC2CCCCC2)CC1 [Compound 36]	600
COc1ncccc1-c1ccc(CC2(C(=O)NC3CCCCC3)CCN(C(=O)[C@@H](N)Cc3cccs3)CC2)cc1 [Compound 46]	38
N#Cc1ccc(-c2ccc(CC3(C(=O)NC4CCCCC4)CCN(C(=O)[C@@H](N)Cc4cccs4)CC3)cc2)cc1 [Compound 51]	35
N[C@@H](Cc1nccs1)C(=O)N1CCC(Cc2ccc(-c3ccccc3)cc2)(C(=O)NC2CCCCC2)CC1 [Compound 33]	230
N[C@@H](Cc1cccs1)C(=O)N1CCC(Cc2ccc(C(=O)N3CCOCC3)cc2)(C(=O)NC2CCCCC2)CC1 [Compound 57]	36.3
N[C@@H](Cc1cccs1)C(=O)N1CCC(Cc2ccc(C(=O)NC3CCCCC3)cc2)(C(=O)NC2CCCCC2)CC1 [Compound 56]	49
N[C@@H](Cc1cccs1)C(=O)N1CCC(Cc2ccc(-c3ccccc3)cc2)(C(=O)O)CC1 [Compound 2]	> 10000
CC[C@H](N)C(=O)N1CCC(Cc2ccc(F)cc2F)(C(=O)OCC2CCCCC2)CC1 [Compound 26]	6100
N[C@@H](Cc1cccs1)C(=O)N1CCC(Cc2ccc(-c3ccccc3)cc2)(C(=O)NC2CCCCC2)CC1 [Compound 8]	35
N[C@@H](Cc1cccs1)C(=O)N1CCC(Cc2ccc(-c3ccc(O)nc3)cc2)(C(=O)NC2CCCCC2)CC1 [Compound 49]	24
COC(=O)C1(Cc2ccc(-c3ccccc3)cc2)CCN(C(=O)[C@@H](N)Cc2cccs2)CC1 [Compound 1]	1800
N[C@@H](Cc1c[nH]cn1)C(=O)N1CCC(Cc2ccc(F)cc2F)(C(=O)OCC2CCCCC2)CC1 [Compound 28]	1700
N[C@@H](Cc1c[nH]cn1)C(=O)N1CCC(Cc2ccc(C(F)(F)F)cc2)(C(=O)OCC2CCCCC2)CC1 [Compound 20]	3100
N[C@@H](Cc1cccs1)C(=O)N1CCC(Cc2ccc(-c3ccncc3)cc2)(C(=O)NC2CCCCC2)CC1 [Compound 42]	29
N[C@@H](Cc1cccs1)C(=O)N1CCC(Cc2ccncc2)(C(=O)NC2CCCCC2)CC1 [Compound 71]	37
N[C@@H](Cc1cccs1)C(=O)N1CCC(Cc2ccc(-c3cccc(C(=O)O)c3)cc2)(C(=O)NC2CCCCC2)CC1 [Compound 55]	100
CC[C@H](N)C(=O)N1CCC(Cc2ccc(C#N)cc2)(C(=O)OCC2CCCCC2)CC1 [Compound 17]	4400
N[C@@H](Cc1cccs1)C(=O)N1CCC(Cc2ccc(-c3ccccc3)cc2)(C(=O)N2CCCCC2)CC1 [Compound 4]	430

Other lines, results leading:

IC50 [nM]	SMILES
84	N[C@@H](Cc1cccs1)C(=O)N1CCC(Cc2cccc(I)c2)(C(=O)NC2CCCCC2)CC1 [Compound 96]
5000	CC[C@H](N)C(=O)N1CCC(Cc2ccncc2)(C(=O)NC2CCCCC2)CC1 [Compound 72]
190	N[C@@H](Cc1cccs1)C(=O)N1CCC(Cc2cccc(-c3ccc(C(=O)O)cc3)c2)(C(=O)NC2CCCCC2)CC1 [Compound 102]
9500	CC[C@H](N)C(=O)N1CCC(Cc2cccc(OC)c2)(C(=O)NC2CCCCC2)CC1 [Compound 83]
250	CSCC[C@H](N)C(=O)N1CCC(Cc2ccc(I)cc2)(C(=O)NC2CCCCC2)CC1 [Compound 73]
31	CS(=O)(=O)Nc1ccc(CC2(C(=O)NC3CCCCC3)CCN(C(=O)[C@@H](N)Cc3cccs3)CC2)cc1 [Compound 88]
130	N[C@@H](Cc1cccs1)C(=O)N1CCC(Cc2ccncc2)(C(=O)NCC2CCOCC2)CC1 [Compound 121]
23	N[C@@H](Cc1cccs1)C(=O)N1CCC(C(=O)NCC2CCCCC2)(c2ccccc2)CC1 [Compound 91]
63	Nc1ccc(CC2(C(=O)NC3CCCCC3)CCN(C(=O)[C@@H](N)Cc3cccs3)CC2)cc1 [Compound 95]
40	N[C@@H](Cc1cccs1)C(=O)N1CCC(Cc2ccccc2)(C(=O)NC2CCCCC2)CC1 [Compound 86]
16	CN(CC1CCCCC1)C(=O)C1(c2ccccc2)CCN(C(=O)[C@@H](N)Cc2cccs2)CC1 [Compound 134]
1700	CC[C@H](N)C(=O)N1CCC(C(=O)N(C)C2CCCCC2)(c2ccccc2)CC1 [Compound 138]
620	N[C@@H](Cc1c[nH]cn1)C(=O)N1CCC(Cc2ccc([N+](=O)[O-])cc2)(C(=O)NC2CCCCC2)CC1 [Compound 79]
17	Cc1ccc(C2(C(=O)NCC3CCCCC3)CCN(C(=O)[C@@H](N)Cc3cccs3)CC2)cc1 [Compound 129]
120	N[C@@H](Cc1cccs1)C(=O)N1CCC(Cc2cccc(-c3ccc(C(F)(F)F)cc3)c2)(C(=O)NC2CCCCC2)CC1 [Compound 100]
2300	CC[C@H](N)C(=O)N1CCC(Cc2ccc(I)cc2)(C(=O)NC2CCCCC2)CC1 [Compound 77]
2800	N[C@@H](Cc1c[nH]cn1)C(=O)N1CCC(C(=O)NC2CCCCC2)(c2ccccc2)CC1 [Compound 75]
230	N[C@@H](Cc1cccs1)C(=O)N1CCC(C(=O)N[C@H]2CC[C@H](O)CC2)(c2cc(C(F)(F)F)cc(C(F)(F)F)c2)CC1 [Compound 120]
200	N[C@@H](Cc1cccs1)C(=O)N1CCC(C(=O)NC[C@H]2CC[C@H](C(=O)O)CC2)(c2ccccc2)CC1 [Compound 112]
1300	N[C@@H](Cc1cccs1)C(=O)N1CCC(Cc2ccncc2)(C(=O)N2CCOCC2)CC1 [Compound 122]
45	N[C@@H](Cc1cccs1)C(=O)N1CCC(Cc2cccc(-c3ccc(O)nc3)c2)(C(=O)NC2CCCCC2)CC1 [Compound 98]
24	N[C@@H](Cc1cccs1)C(=O)N1CCC(Cc2ccc([N+](=O)[O-])cc2)(C(=O)NC2CCCCC2)CC1 [Compound 81]
110	N[C@@H](Cc1cccs1)C(=O)N1CCC(C(=O)N[C@H]2CC[C@H](O)CC2)(c2ccccc2)CC1 [Compound 85]
46	N#Cc1ccc(-c2ccc(CC3(C(=O)NC4CCCCC4)CCN(C(=O)[C@@H](N)Cc4cccs4)CC3)cc2)cc1 [Compound 99]
~4000	N[C@@H](Cc1ccccc1)C(=O)N1CCC(Cc2ccc(-c3ccccc3)cc2)(C(=O)NCC2CCCCC2)CC1 [Compound 108]
110	N#Cc1ccccc1CC1(C(=O)NC2CCCCC2)CCN(C(=O)[C@@H](N)Cc2cccs2)CC1 [Compound 82]
